This passage reports LC retention time results from the RepoRT retention time repository (doi:10.1021/ac300829f).

Each structure is given as a SMILES string.

A short description of this series: RP, Thermo Scientific Hypersil GOLD, 150 × 2.1 mm, 1.9 µm, 0.5 mL/min, estimated dead time 0.66 min; A: water + 0.1% formic acid, pH 3; B: acetonitrile + 0.1% formic acid, pH 3; gradient (min/%B) 0/0 2/0 13/100 15.5/100 19/0. The following applies: stereoisomer not certain.

Regarding `CC(=O)NCCCCN` [N-acetylputrescine], the LC retention time was 1.1 min.

`N[C@@H](Cc1c[nH]c2ccccc12)C(=O)O` [L-tryptophan]: the LC retention time was 0.8 min.

On to `CCCCCCCCCC(=O)OC(CC(=O)[O-])C[N+](C)(C)C` (centres undefined) [decanoylcarnitine], for which the LC retention time was 9 min.

Take `Nc1ncnc2c1ncn2C1OC(CO)C(O)C1O` (centres undefined) [adenosine]: the LC retention time was 1.1 min.

For `Nc1ncnc2c1ncn2C1OC2COP(=O)(O)OC2C1O` (centres undefined) [cyclic AMP], the LC retention time was 1 min.

Regarding `Nc1nc2nc[nH]c2c(=O)[nH]1` [guanine], the LC retention time is 1.1 min.

For `O=C(O)CNC(=O)c1ccccc1O` [o-hydroxyhippuric acid], the LC retention time is 6.5 min.

`NC(=O)CCC(N)C(=O)O` (centres undefined) [glutamine]: the LC retention time was 0.9 min.

On to `Cc1ncc(CO)c(C(=O)O)c1O` [4-pyridoxic acid], for which the LC retention time was 5.6 min.

With `NC(=O)c1cccnc1` [nicotinamide], the LC retention time is 1.1 min.

Turning to `CC(=O)NC(Cc1ccccc1)C(=O)O` (centres undefined) [N-acetylphenylalanine], the LC retention time is 6.6 min.

As for `CC12CCC(=O)C=C1CCC1C2CCC2(C)C(OC3OC(C(=O)O)C(O)C(O)C3O)CCC12` (centres undefined) [testosterone glucuronide], the LC retention time is 7.9 min.

In the case of `CC(=O)NCCCNCCCCN` [N1-acetylspermidine], the LC retention time is 0.9 min.

In the case of `O=C(O)CNC(=O)C1=CCCCC1` [tetrahydrohippuric acid], the LC retention time is 6.3 min.

`CCCCCCCC(C(=O)O)C(=O)O` [heptylmalonic acid]: the LC retention time is 6.1 min.

With `Cc1cc2nc3c(=O)[nH]c(=O)nc-3n(CC(O)C(O)C(O)CO)c2cc1C` (centres undefined) [riboflavin], the LC retention time was 5.7 min.

`NC(Cc1ccccc1)C(=O)O` (centres undefined) [phenylalanine]: the LC retention time was 4.4 min.

For the molecule `CC12CCC(=O)C=C1CCC1C2CCC2(C)C(C(=O)CO)CCC12` (centres undefined) [deoxycorticosterone], the LC retention time was 9.6 min.

For `C[N+](C)(C)CC(CC(=O)[O-])OC(=O)CCCCC(=O)O` (centres undefined) [adipoylcarnitine], the LC retention time is 5.3 min.

For the molecule `O=C(O)Cc1c[nH]c2ccc(O)cc12` [5-hydroxyindoleacetic acid], the LC retention time was 5.7 min.

As to `CC12CCC3C(CCC4CC(OC5OC(C(=O)O)C(O)C(O)C5O)CCC43C)C1CCC2=O` (centres undefined) [androsterone glucuronide], the LC retention time was 8.6 min.

In the case of `CC(=O)Nc1ccc(OC2OC(C(=O)O)C(O)C(O)C2O)cc1` (centres undefined) [acetaminophene glucuronide], the LC retention time was 4.2 min.

Take `NC(Cc1cnc[nH]1)C(=O)O` (centres undefined) [histidine]: the LC retention time is 0.8 min.

As for `CC(=O)NCCC(=O)NC(Cc1cnc[nH]1)C(=O)O` (centres undefined) [N-acetylcarnosine], the LC retention time is 1.1 min.

With `Cc1cnc(=O)[nH]c1N` [5-methylcytosine], the LC retention time is 1 min.

As to `CCCCCC=CCC=CCCCCCCCC(=O)OCC(O)COP(=O)([O-])OCC[N+](C)(C)C` (centres undefined) [1-linoleoylglycerophosphocholine GPCho(18:2)], the LC retention time is 11.2 min.

Consider `CC(C)(O)CC(=O)O` [3-hydroxy-3-methylbutyric acid (3-hydroxyisovaleric acid)], for which the LC retention time is 4.2 min.

Regarding `NC(N)=NCCCC(N)C(=O)O` (centres undefined) [arginine], the LC retention time is 0.9 min.

As to `O=c1[nH]cnc2nc[nH]c12` [hypoxanthine], the LC retention time was 1.1 min.

On to `Cc1cc2c(cc1C)N(CC(O)C(O)C(O)COP(=O)(O)O)c1[nH]c(=O)[nH]c(=O)c1N2` (centres undefined) [FMNH], for which the LC retention time was 5.7 min.

Take `O=C1CCNC(=O)N1` [5,6-dihydrouracil]: the LC retention time is 1.1 min.

With `CCC(CCCCCC(=O)O)C(=O)O` (centres undefined) [2-ethylsuberic acid], the LC retention time was 6.7 min.

On to `CC(CCC(=O)O)C1CCC2C3C(O)CC4CC(O)CCC4(C)C3CC(O)C12C` (centres undefined) [cholic acid], for which the LC retention time was 9.2 min.

Consider `CC(=O)NC(C)C(=O)O` (centres undefined) [acetylalanine], for which the LC retention time is 1.8 min.

Regarding `O=C(O)CC(Nc1ncnc2c1ncn2C1OC(CO)C(O)C1O)C(=O)O` (centres undefined) [succinyladenosine], the LC retention time is 4.8 min.

As for `O=C(O)C1CCCN1` (centres undefined) [proline], the LC retention time was 1.1 min.

For `CC(=O)Nc1ccn(C2OC(CO)C(O)C2O)c(=O)n1` (centres undefined) [N4-acetylcytidine], the LC retention time was 4.6 min.

Regarding `O=C(O)CNC(=O)c1cccc(O)c1` [m-hydroxyhippuric acid], the LC retention time is 6.1 min.

With `Cn1c(=O)c2[nH]c(=O)[nH]c2n(C)c1=O` [1,3-dimethyluric acid], the LC retention time was 4.7 min.

`C[n+]1cccc(C(=O)[O-])c1` [trigonelline]: the LC retention time is 0.9 min.

`O=C(O)c1cc(=O)c2cccc(O)c2[nH]1` [xanthurenic acid]: the LC retention time is 5.2 min.

Consider `O=C(C=Cc1ccc(O)c(O)c1)OC1CC(O)(C(=O)O)CC(O)C1O` (centres undefined) [chlorogenic acid], for which the LC retention time was 5.5 min.

`CCC(C)(O)C(=O)O` (centres undefined) [2-hydroxy-2-methylbutyric acid (2-hydroxyisovaleric acid)]: the LC retention time was 4.6 min.

Consider `CN(CC(=O)O)C(=N)N` [creatine], for which the LC retention time is 1 min.

As to `OCc1cccc(O)c1` [3-hydroxybenzyl alcohol], the LC retention time is 5.1 min.

Turning to `Cn1c(=O)c2c(ncn2C)n(C)c1=O` [caffeine], the LC retention time was 5.6 min.

For `CN1C(=O)C(O)CC1c1cccnc1` (stereo not drawn) [trans-3-hydroxycotinine], the LC retention time is 1.1 min.

With `CCCCCCCCC=CCCCCCCCC(=O)OCC(O)COP(=O)([O-])OCC[N+](C)(C)C` (centres undefined) [1-oleoylglycerophosphocholine LysoPC(18:1)], the LC retention time was 12 min.

As for `OCc1ccccc1O` [2-hydroxybenzyl alcohol], the LC retention time is 5.8 min.

Turning to `Cc1ccc(C(=O)NCC(=O)O)cc1` [4-methylhippuric acid (para-methylhippuric acid)], the LC retention time is 6.7 min.

Regarding `NCCS(=O)(=O)O` [taurine], the LC retention time is 0.9 min.

In the case of `CN1CC(=O)NC1=N` [creatinine], the LC retention time is 0.9 min.

In the case of `O=C(OC1OC(C(=O)O)C(O)C(O)C1O)c1c[nH]c2ccccc12` (centres undefined) [3-indole carboxylic acid glucuronide], the LC retention time was 6.3 min.

Consider `CN(C)c1nc2c(ncn2C2OC(CO)C(O)C2O)c(=O)[nH]1` (centres undefined) [N,N-dimethylguanosine], for which the LC retention time is 4.8 min.

As for `NC(CO)C(=O)O` (centres undefined) [serine], the LC retention time is 0.9 min.

For the molecule `CCCCCC=CC(=O)OC(CC(=O)[O-])C[N+](C)(C)C` (centres undefined) [octenoylcarnitine], the LC retention time is 7.3 min.

On to `CSCC(O)C(O)C(O)C=O` (centres undefined) [5-methylthioribose], for which the LC retention time was 1.1 min.

For `CC(C)(CCC(=O)O)C(=O)O` [2,2-dimethylglutaricacid], the LC retention time is 6 min.

Consider `NC(N)=NCC(=O)O` [guanidoacetic acid], for which the LC retention time was 0.9 min.

In the case of `Cn1c(=O)[nH]c2[nH]c(=O)n(C)c2c1=O` [1,7-dimethyluric acid], the LC retention time is 5 min.

On to `NC(Cc1ccc(O)cc1)C(=O)O` (centres undefined) [tyrosine], for which the LC retention time was 1.1 min.

Turning to `O=C(O)CCCCCCCCC(=O)O` [sebacic acid], the LC retention time is 7.6 min.

For the molecule `NCCc1c[nH]c2ccccc12` [tryptamine], the LC retention time is 5.7 min.

Take `OCC1NCC(O)C(O)C1OC1OC(CO)C(O)C(O)C1O` (centres undefined) [glucopyranosylmoranoline]: the LC retention time was 4.5 min.
